# Results from patent publication US7495027B2, “3-aryl-4-hydroxyfuranone compounds and the human and animal health use thereof” (Wyeth, priority 2003, dated 2009).
# System: Trichostrongylus columbriformis
# Assay: In vivo efficacy against T. colubriformis in infected gerbils
# Settings: gerbils infected with T. colubriformis; single oral dose of 50 mg/kg by gavage; worm counts four days post-treatment; % mortality as compared to negative control
# Method: In Vivo Evaluation of the Efficacy of Test Compounds Against T. colubriformis
# In this evaluation, gerbils are infected with Trichostrongylus columbriformis infective larvae at a concentration of approximately 800 L3/mL. Larvae for gerbil infections are cultured from feces from sheep previously infected with T. colubriformis. One week post infection, test compounds are administered by gavage as a single oral dose of 50 mg/kg of body weight. For each group of 3 gerbils, 10 mg of test compound are dissolved in 2 mL of PEG 400:DMSO (1:2 v/v) and each animal is administered the test solution at a rate of 0.1 mL/10 g of body weight. […] All animals are observed daily for morbidity and mortality. Four days post-treatment, all animals are weighed and necropsied. Worm counts are conducted with the use of stereoscopes and counters.
row,SMILES,Mortality [%]
1,Cc1ccccc1C1=C(O)C(=Cc2ccc(-c3ccccc3C)cc2)OC1=O,21.30
2,Cc1cc(/C=C2\OC(=O)C(c3cccc(Cl)c3)=C2O)ccc1-c1ccccc1C(F)(F)F,11.20
3,Cc1cc(/C=C2\OC(=O)C(c3cccc(Cl)c3)=C2O)ccc1-c1ccccc1Cl,16.90
4,COc1ccccc1-c1ccc(C=C2OC(=O)C(c3cccc(Cl)c3)=C2O)cc1C,0.00
5,COc1cc(/C=C2\OC(=O)C(c3cccc(Cl)c3)=C2O)ccc1-c1ccccc1Cl,0.00
6,Cc1ccccc1-c1ccc(C=C2OC(=O)C(c3cccc(Cl)c3)=C2O)cc1C,10.80
7,Cc1ccc(C2=C(O)/C(=C/c3cccc(C(F)(F)F)c3Cl)OC2=O)cc1C,36.50
8,O=C1O/C(=C\c2ccc(-c3ccc(Cl)c(Cl)c3)cc2)C(O)=C1c1ccc(Cl)c(Cl)c1,22.00
9,CCc1ccc(C2=C(O)C(=Cc3cc(C(F)(F)F)ccc3Cl)OC2=O)cc1,39.00
10,C=CCOC1=C(c2ccc(Cl)cc2)C(=O)OC1=Cc1ccc(C#N)cc1 (mixture of isomers),0.00
11,O=C1OC(=Cc2ccc(-c3ccc(Cl)cc3)cc2)C(O)=C1c1cccc(C(F)(F)F)c1 (mixture of isomers),31.30
12,N#Cc1ccc(-c2ccc(C=C3OC(=O)C(c4cccc(Cl)c4)=C3O)cc2)cc1 (mixture of isomers),32.00
13,O=C1OC(=Cc2ccc(-c3ccc(Cl)cc3)cc2)C(O)=C1c1cccc(Cl)c1 (mixture of isomers),37.60
14,N#Cc1ccc(-c2ccc(C=C3OC(=O)C(c4ccc(C(F)(F)F)cc4)=C3O)cc2)cc1 (mixture of isomers),91.50
15,N#Cc1ccc(-c2ccc(C=C3OC(=O)C(c4ccc(F)cc4)=C3O)cc2)cc1 (mixture of isomers),31.80
16,O=C1OC(=Cc2ccc(-c3ccc(Cl)cc3)cc2)C(O)=C1c1ccc(F)cc1 (mixture of isomers),1.60
17,O=C1OC(=Cc2cnccc2-c2cccc(Cl)c2)C(O)=C1c1ccc(OC(F)(F)F)cc1 (mixture of isomers),66.80
18,O=C1OC(=Cc2cnccc2-c2ccc(Cl)cc2)C(O)=C1c1ccc(OC(F)(F)F)cc1 (mixture of isomers),84.60
19,O=C1OC(=Cc2cnccc2-c2ccc(OC(F)(F)F)cc2)C(O)=C1c1ccc(OC(F)(F)F)cc1 (mixture of isomers),82.60
20,O=C1OC(=Cc2cnccc2-c2ccc(Cl)s2)C(O)=C1c1ccc(OC(F)(F)F)cc1 (mixture of isomers),88.50
21,CCCOc1ccc(C=C2OC(=O)C(c3ccc(OC(F)(F)F)cc3)=C2O)cc1 (mixture of isomers),10.40
22,O=C1O/C(=C\c2ccccc2)C(O)=C1c1ccccc1C(F)(F)F [R=H; R1=2-CF3—C6H4; R2=C6H5],34.60
23,O=C1O/C(=C\c2ccc(-c3ccccc3F)cc2)C(O)=C1c1ccccc1F [R=H; R1=2-F—C6H4; R2=4-(2′F-biphenyl)],12.40
24,O=C1O/C(=C\c2cc(C(F)(F)F)ccc2F)C(O)=C1c1cccc(-c2ccccc2)c1 [R=H; R1=3-biphenyl; R2=2-F-5-CF3—C6H4],38.40
25,O=C1O/C(=C\c2cc(F)cc(C(F)(F)F)c2)C(O)=C1c1cccc(-c2ccccc2)c1 [R=H; R1=3-biphenyl; R2=3-F-5-CF3—C6H4],0.00
26,O=C1O/C(=C\c2ccc(Cl)cc2)C(O)=C1c1ccc(-c2ccccc2)c(F)c1 [R=H; R1=4-(3-F-biphenyl); R2=4-CI-C6H4],22.00
27,O=C1O/C(=C\c2cccc(Cl)c2)C(O)=C1c1ccc(Cl)cc1 [R=H; R1=4-Cl—C6H4; R2=3-CI-C6H4],25.40
28,O=C1O/C(=C\c2cc(C(F)(F)F)ccc2Cl)C(O)=C1c1ccc(-c2ccccc2)cc1 [R=H; R1=4-biphenyl; R2=2-Cl—5-CF3—C6H4],38.40

# System: C. elegans
# Assay: Efficacy against nematodes (C. elegans motility rating)
# Parameters: key: 0: no effect; 7: reduced movement in 24 h; 8: dead in 24 h; 9: dead in 4 h
# Settings: dose 100 ppm, observations at 4 h and 24 h postimmersion
# In short: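 Mixed-stage C. elegans (~50 per well, L1 to adult) in M9 buffer exposed to test compound at 100 ppm, 150 ppm or 200 μM final. Motility of larvae and adults scored under dissecting microscope at 4 h and 24 h.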
row,SMILES,Rating
1,C=CCOC1=C(c2ccc(Cl)cc2)C(=O)OC1=Cc1ccc(C#N)cc1 (mixture of isomers),0
2,O=C1OC(=Cc2ccc(-c3ccc(Cl)cc3)cc2)C(O)=C1c1cccc(C(F)(F)F)c1 (mixture of isomers),9
3,N#Cc1ccc(-c2ccc(C=C3OC(=O)C(c4cccc(Cl)c4)=C3O)cc2)cc1 (mixture of isomers),9
4,O=C1OC(=Cc2ccc(-c3ccc(Cl)cc3)cc2)C(O)=C1c1cccc(Cl)c1 (mixture of isomers),9
5,N#Cc1ccc(-c2ccc(C=C3OC(=O)C(c4ccc(C(F)(F)F)cc4)=C3O)cc2)cc1 (mixture of isomers),9
6,N#Cc1ccc(-c2ccc(C=C3OC(=O)C(c4ccc(F)cc4)=C3O)cc2)cc1 (mixture of isomers),9
7,O=C1OC(=Cc2ccc(-c3ccc(Cl)cc3)cc2)C(O)=C1c1ccc(F)cc1 (mixture of isomers),9

# Same assay, conditions: dose 150 ppm, observations at 4 h and 24 h postimmersion
row,SMILES,Rating
1,Cc1ccccc1C1=C(O)C(=Cc2ccc(-c3ccccc3C)cc2)OC1=O,8
2,Cc1ccccc1-c1ccc(C=C2OC(=O)C(c3cccc(Cl)c3)=C2O)cc1C,9
3,O=C1O/C(=C\c2ccc(-c3ccc(Cl)c(Cl)c3)cc2)C(O)=C1c1ccc(Cl)c(Cl)c1,9

# System: larvae of blowfly, Lucilia sericata
# Assay: whole plant or invertebrate
# Settings: dose rate of 20 ppm; Lucilia sericata larvae on treated filter paper with bovine serum; assessed at 24 h
# Method: Comparative Evaluation of the Efficacy of a 3-Aryl-4-hydroxyfuranone Compound Against Blowfly Larvae
# In this evaluation, filter paper discs are treated with an acetone solution of test compound and allowed to dry. Bovine serum and newly emerged larvae of blowfly, Lucilia sericata, are added to the treated filter paper. Mortality is assessed at 24 h and 48 h. When more than one evaluation is performed, the data are averaged.
row,SMILES,% Mortality 24 h [%]
1,"N#Cc1ccc(C2=C(O)C(=Cc3ccc(Cl)cc3)OC2=O)cc1 (mixture of isomers) [R=H, R1=4-CN—C6H4**, R2=4-Cl—C6H4]",25
2,"N#Cc1ccc(C2=C(O)C(=Cc3ccc(F)cc3)OC2=O)cc1 (mixture of isomers) [R=H, R1=4-CN—C6H4**, R2=4-F—C6H4]",0
3,"O=C1OC(=Cc2ccccc2C(F)(F)F)C(O)=C1c1ccc(Cl)cc1 (mixture of isomers) [R=H, R1=4-Cl—C6H4**, R2=2-CF3—C6H4]",10
4,"O=C1OC(=Cc2cccc(Cl)c2)C(O)=C1c1ccc(Cl)cc1 (mixture of isomers) [R=H, R1=4-Cl—C6H4**, R2=3-Cl—C6H4]",0
5,"O=C1OC(=Cc2ccc(C(F)(F)F)cc2)C(O)=C1c1ccc(Cl)cc1 (mixture of isomers) [R=H, R1=4-Cl—C6H4**, R2=4-CF3—C6H4]",100
6,"N#Cc1ccc(C=C2OC(=O)C(c3ccc(Cl)cc3)=C2O)cc1 (mixture of isomers) [R=H, R1=4-Cl—C6H4**, R2=4-CN—C6H4]",0
7,"O=C1OC(=Cc2ccc(F)cc2)C(O)=C1c1ccc(Cl)cc1 (mixture of isomers) [R=H, R1=4-Cl—C6H4**, R2=4-F—C6H4]",0
8,"O=C1OC(=Cc2ccc(C(F)(F)F)cc2)C(O)=C1c1ccc(F)cc1 (mixture of isomers) [R=H, R1=4-F—C6H4**, R2=4-CF3—C6H4]",0
9,"N#Cc1ccc(C=C2OC(=O)C(c3ccc(F)cc3)=C2O)cc1 (mixture of isomers) [R=H, R1=4-F—C6H4**, R2=4-CN—C6H4]",0
10,"O=C1OC(=Cc2ccc(Cl)cc2)C(O)=C1c1ccc(F)cc1 (mixture of isomers) [R=H, R1=4-F—C6H4**, R2=4-Cl—C6H4]",0
11,"O=C1OC(=Cc2ccc(F)cc2)C(O)=C1c1ccc(F)cc1 (mixture of isomers) [R=H, R1=4-F—C6H4**, R2=4-F—C6H4]",0
12,"COC1=C(c2cccc(C(F)(F)F)c2)C(=O)O/C1=C\c1ccccc1 [R=CH3, R1=3-CF3—C6H4, R2=C6H5]",0
13,"O=C1O/C(=C\c2ccc(-c3ccccc3)c(F)c2)C(O)=C1c1cccc(C(F)(F)F)c1 [R=H, R1=3-CF3—C6H4, R2=4-(3-F-biphenyl)]",0
14,"O=C1O/C(=C\c2cccc3ccccc23)C(O)=C1c1cccc(CO)c1 [R=H, R1=3-CH2OH—C6H4, R2=1-naphthyl]",0
15,"N#Cc1ccc(-c2ccc(/C=C3\OC(=O)C(c4ccc(Cl)cc4)=C3O)cc2)cc1 [R=H, R1=4-Cl—C6H4*, R2=4-(4′-CN-biphenyl)]",0
16,"N#Cc1ccc(-c2ccc(/C=C3\OC(=O)C(c4ccc(Cl)cc4)=C3O)cc2)cc1 [R=H, R1=4-Cl—C6H4, R2=4-(4′-CN-biphenyl)]",0
17,"COc1ccc(C=C2OC(=O)C(c3ccc(Cl)cc3)=C2O)cc1 [R=H, R1=4-Cl—C6H4, R2=4-OMe—C6H4]",0
18,"O=C1O/C(=C\c2cccc(C(F)(F)F)c2)C(O)=C1c1ccccc1 [R=H, R1=C6H5, R2=3-CF3—C6H4]",0

# Same assay, conditions: dose rate of 20 ppm; Lucilia sericata larvae on treated filter paper with bovine serum; assessed at 48 h
row,SMILES,% Mortality 48 h [%]
1,"N#Cc1ccc(C2=C(O)C(=Cc3ccc(Cl)cc3)OC2=O)cc1 (mixture of isomers) [R=H, R1=4-CN—C6H4**, R2=4-Cl—C6H4]",100
2,"N#Cc1ccc(C2=C(O)C(=Cc3ccc(F)cc3)OC2=O)cc1 (mixture of isomers) [R=H, R1=4-CN—C6H4**, R2=4-F—C6H4]",0
3,"O=C1OC(=Cc2ccccc2C(F)(F)F)C(O)=C1c1ccc(Cl)cc1 (mixture of isomers) [R=H, R1=4-Cl—C6H4**, R2=2-CF3—C6H4]",10
4,"O=C1OC(=Cc2cccc(Cl)c2)C(O)=C1c1ccc(Cl)cc1 (mixture of isomers) [R=H, R1=4-Cl—C6H4**, R2=3-Cl—C6H4]",0
5,"O=C1OC(=Cc2ccc(C(F)(F)F)cc2)C(O)=C1c1ccc(Cl)cc1 (mixture of isomers) [R=H, R1=4-Cl—C6H4**, R2=4-CF3—C6H4]",100
6,"N#Cc1ccc(C=C2OC(=O)C(c3ccc(Cl)cc3)=C2O)cc1 (mixture of isomers) [R=H, R1=4-Cl—C6H4**, R2=4-CN—C6H4]",90
7,"O=C1OC(=Cc2ccc(F)cc2)C(O)=C1c1ccc(Cl)cc1 (mixture of isomers) [R=H, R1=4-Cl—C6H4**, R2=4-F—C6H4]",0
8,"O=C1OC(=Cc2ccc(C(F)(F)F)cc2)C(O)=C1c1ccc(F)cc1 (mixture of isomers) [R=H, R1=4-F—C6H4**, R2=4-CF3—C6H4]",0
9,"N#Cc1ccc(C=C2OC(=O)C(c3ccc(F)cc3)=C2O)cc1 (mixture of isomers) [R=H, R1=4-F—C6H4**, R2=4-CN—C6H4]",0
10,"O=C1OC(=Cc2ccc(Cl)cc2)C(O)=C1c1ccc(F)cc1 (mixture of isomers) [R=H, R1=4-F—C6H4**, R2=4-Cl—C6H4]",0
11,"O=C1OC(=Cc2ccc(F)cc2)C(O)=C1c1ccc(F)cc1 (mixture of isomers) [R=H, R1=4-F—C6H4**, R2=4-F—C6H4]",0
12,"COC1=C(c2cccc(C(F)(F)F)c2)C(=O)O/C1=C\c1ccccc1 [R=CH3, R1=3-CF3—C6H4, R2=C6H5]",0
13,"O=C1O/C(=C\c2ccc(-c3ccccc3)c(F)c2)C(O)=C1c1cccc(C(F)(F)F)c1 [R=H, R1=3-CF3—C6H4, R2=4-(3-F-biphenyl)]",0
14,"O=C1O/C(=C\c2cccc3ccccc23)C(O)=C1c1cccc(CO)c1 [R=H, R1=3-CH2OH—C6H4, R2=1-naphthyl]",0
15,"N#Cc1ccc(-c2ccc(/C=C3\OC(=O)C(c4ccc(Cl)cc4)=C3O)cc2)cc1 [R=H, R1=4-Cl—C6H4*, R2=4-(4′-CN-biphenyl)]",100
16,"N#Cc1ccc(-c2ccc(/C=C3\OC(=O)C(c4ccc(Cl)cc4)=C3O)cc2)cc1 [R=H, R1=4-Cl—C6H4, R2=4-(4′-CN-biphenyl)]",0
17,"COc1ccc(C=C2OC(=O)C(c3ccc(Cl)cc3)=C2O)cc1 [R=H, R1=4-Cl—C6H4, R2=4-OMe—C6H4]",0
18,"O=C1O/C(=C\c2cccc(C(F)(F)F)c2)C(O)=C1c1ccccc1 [R=H, R1=C6H5, R2=3-CF3—C6H4]",0
